In experiment [1] the test system is DX20 cancer cells. Briefly: modified MTT assay, drug sensitivity of DX20 cells. Format: cell-based, human. To be noted: Homo sapiens, DX20 cells. The text has this: The MES-SA/DX20 cell line was established according to the development methods of Sikic et al., Resistance to Antineoplastic Drugs, Chap. 3, CRC Press, Ed. David Kessel, pp. 37-47 (1989). In vitro drug sensitivity testing consisted of two assay models, the modified MTT assay (Mossman, J. Immunolog. Methods, Vol. 65, pp. 55-63, 1983) and the colonogenic assay. In addition to this, the combinations were investigated in vivo in nude mice bearing the DX20 cell line. The MTT assay was chosen because of its practical advantages in large-scale screening. The assay involved cellular conversion of tetrazolium salt to a colored formazan serving as a measurement of cell viability.
In a given experiment, culture media, 50 microliters, containing 8,000-25,000 cells, depending on the proliferation rate of the cell line, was pipetted into each well of several 96-well microtiter plates. The cells were allowed to attach overnight. […] The cytotoxic drug, also at a concentration below that previously established as an IC50, was then added at decreasing concentrations by 25% to several half plate sections. The cells were allowed to grown for 72 hours. 100 microliters of media was then removed and 25 microliters of 5 mg/ml MTT (Sigma, St. Louis, Mo.) in phosphate buffered saline was added to each well. The plates were kept in an incubator at 37° C. and 5% CO2. After 2-3 hours of incubation, the extraction buffer containing 20% w/v SDS and 50% DMF was added and the plates again incubated overnight. The plates were read at a test wavelength of 570 nm on a multiwell spectrophotometer (Model MR 700, Dynatech Laboratories, Alexandria, Va.). Each drug combination was tested in triplicate. Percent survival was defined as percent of optical density (OD) of the drug-treated wells to that of the control detected by the spectrophotometer.
The in vitro drug sensitivity testing of ethyl fangchinoline consisted of two assay models, the modified MTT (Mossman 1983) and a colony formation assay in which a direct measure was taken by quantitation of colony formation. The MTT assay was chosen because of its practical advantages in large scale screening. The assay involves cellular conversion of tetrozolium salt to a colored formazan serving as a measurement of cell viability.
Two human cell lines were chosen as the primary targets of study in reversing multiple-drug resistance. The MES-SA, a sarcoma, and its resistant subline, DX-20, were kindly donated by Dr. B. Sikic (U of Stanford, Stanford, Calif.). The A2780, an ovarian cancer, and its resistant subline, A2780-ad10, were provided by Roswell Park Memorial Inst. (Buffalo, N.Y.).
Culture media, 50 ul containing 8,000 to 25,000 cells depending on the proliferation rate of the line, was pipetted into each of 96 wells in a flat bottom tissue plate. The cells were incubated overnight to allow adherence. One hundred ul of ethyl fangchinoline, at a concentration below that previously established as an independent IC50, was added to each experimental well. […] The plates were then incubated for 72 hours before MTT was added and the analysis of O.D. values interpreted by a multi-plate scanner (MR700, Dynatech).
(In general: Formazan colour is commonly taken as a measure of viable cells.)

The subject of experiment [2] is DX20 tumor. Nature of the experiment: tumor measurements in nude mice bearing the DX20 tumor. Format: in vivo. Also noted: unit not given here. How it is done: (See FIG. 6). Tumor size was calculated using the formula (4 Pi/3) X*Y*2Z.
The study was done with 3-4 week old male balb-C nude mice. The animals were injected with DX20 1×10^7 cells.

The subject of experiment [3] is multidrug resistant human cancer (DX20). Type of experiment: in vivo, mice. To be noted: d-tetrandrine 0.5, 1, 1.5 mg injections; doxorubicin 5.5 mg per kg; about one month. As to the method:
It is only important that they be administered sufficiently close together that the cancer is exposed to both simultaneously. For example, nude mice infected with a multidrug resistant human cancer were given 0.5 mg, 1 mg and 1.5 mg respectively in three separate injections, 72 hours apart.

Experiment [4] concerns resistant (K562-R7) cancel cells. Nature of the experiment: doxorubicin fluorescence test by flow cytometry. Type of experiment: cell-based. To be noted: FIG. 12; doxorubicin used alone. For orientation: In flow cytometry, cells or beads pass a laser one at a time.
Setting [5] is: Day 7 Prior to Treatment (baseline).
The mark [6] stands for this setting: Day 24 After Treatment, d-tetrandrine days 6, 8, 10, doxorubicin 5.5 mg/kg day 12.

Read-outs that look alike come from different tables or passages of the source.

As a reminder, the IC50 is the concentration at which inhibition is half-maximal. Consider `COc1cccc2c1C(=O)c1c(O)c3c(c(O)c1C2=O)C[C@@](O)(C(=O)CO)C[C@@H]3O[C@H]1C[C@H](N)[C@H](O)[C@H](C)O1` [doxorubicin], for which the IC50 is 660 nM in experiment [1] (d-tetrandrine 2 × 10^−7 molar, read-out: IC50 doxorubicin in d-tetrandrine); 360 nM in experiment [1] (d-tetrandrine 4 × 10^−7 molar, read-out: IC50 doxorubicin in d-tetrandrine); 480 nM in experiment [1] (ethyl fangchinoline 1 × 10^−6 molar, read-out: IC50 doxorubicin in ethyl fangchinoline); 470 nM in experiment [1] (ethyl fangchinoline 2 × 10^−7 molar, read-out: IC50 doxorubicin in ethyl fangchinoline); 160 nM in experiment [1] (ethyl fangchinoline 4 × 10^−7 molar, read-out: IC50 doxorubicin in ethyl fangchinoline); 5400 nM in experiment [1] (single agent, read-out: IC50 alone). Besides, the “Tumor Measurements Depth” value in experiment [2] (setting [5]) is 1.25; in experiment [2] (setting [6]), 21.50. The “Tumor Measurements Length” value in experiment [2] (setting [5]) was determined as 3.50; in experiment [2] (setting [6]) it was 24.50. Moreover, the “Tumor Measurements Width” value worked out at 3.87 in experiment [2] (setting [5]) and 19.10 in experiment [2] (setting [6]). Besides, the tumor outcome in experiment [3] is on record as “very large tumors which were unabated”. For the same molecule, the “doxorubicin concentration (fluorescence) in resistant versus sensitive cells” value in experiment [4] is reported as “lower concentration of doxorubicin than does a sensitive cancer”.
